13 compounds from patent publication US10030027B2, “Soluble guanylate cyclase stimulators” (MERCK SHARP & DOHME CORP., priority 2015, dated 2018) can be followed below.

One assay deals with sGC α1/β1 heterodimer (Homo sapiens (Human), UniProt Q02108+Q02153). In words: Cell-based sGC functional assay (cyclic GMP assay for sGC activator: CASA assay). The following applies: CHO-K1/sGC cells; for Emax: CHO-K1, activity expressed as percentage of compound A (standard), read-out: % Activation; for EC50: inflection point, 4P fit, read-out: IP. The gist of the method: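 CHO-K1 cells stably expressing sGC α1/β1 were pre-incubated with or without 1 μM DETA-NO (30 min, 25 °C), then exposed to compounds for 1 hr at 37 °C with 0.5 mM IBMX. Intracellular cGMP was read by HTRF and expressed as a percentage of a reference heme-dependent activator's maximum.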

Assay [1] addresses human recombinant sGC enzyme (Homo sapiens (Human), UniProt Q02108+Q02153). Nature of the assay: Size Exclusion Chromatography (SEC) competition binding assay using [3H] Ex-77B as the radioligand. As to conditions: [3H] Ex-77B radioligand, 24 hours at 37° C. The gist of the method:
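Recombinant human sGC binding measured by competition against tritiated Ex-77B radioligand, with non-specific binding defined by 1 μM unlabeled Ex-77B.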

Assay [2] relates to hypoxia-induced pulmonary hypertension rat. In words: Acute efficacy in hypoxia-induced pulmonary hypertension in rat following intratracheal administration. The assay is classed as in vivo. The source says:
Acute Efficacy in Hypoxia-Induced Pulmonary Hypertension in Rat Following Intratracheal Administration Charles River Sprague-Dawley (CD) male rats weighing approximately 350 g were implanted with HD-S21 dual pressure telemetry transmitters (Data Sciences International (DSI)) into the pulmonary artery and femoral artery. This transmitter enables simultaneous measurement of both pulmonary and systemic hemodynamic parameters in the same animal. After a 7-10 day post-operative recovery period, animals were subjected to a normobaric hypoxic (10% oxygen) environment using a Higher Peak Mountain Air Generator (MAG-10) connected to a modified rodent cage via a fitted inlet port. Oxygen (at 10%), temperature, humidity, and CO2 were controlled within normal range and animals were maintained on a 12 hour light-dark cycle with ad libitum access to food and water. After two weeks exposure to 10% O2 hypoxic environment, systolic pulmonary arterial pressure readings increased from 25 mmHg to greater than 50 mmHg. Using a 48 hour baseline average, animals with readings between 50-110 mmHg (standard deviation of less than 10 mmHg) and minimal changes in systolic systemic blood pressure were enrolled for study. Animals were utilized for up to 2 studies per week for 4 weeks with a minimum of 2 days washout between doses of test agent. Compound or vehicle was administered intra-tracheally under light isoflurane anesthesia (5% in oxygen; flow rate 2.0 L/min for 3 minutes). Once anesthetized, rats were placed on an angled intubation stand in supine position and the trachea visualized using a small laryngoscope. Animals then received either 0.5 mL/kg of vehicle or 0.5 mL/kg vehicle containing compound intra-tracheally delivered via microsprayer by use of a Penn-Century Microsprayer® needle 3″ (Model IA-1B-GP) attached to a 1 mL high pressure syringe (Penn Century-Model B-SYR-PL1000) (Penn-Century, Philadelphia, Pa.). The Microsprayer® tip was inserted into the trachea up to the point at which the bend in the needle is close to the tip of the snout, which positions the tip of the Microsprayer® in front of the carina (bifurcation of trachea at the bronchi). After dose delivery the animal is placed on its back in the home cage for recovery. Hemodynamic measurements were continuously recorded and readings consolidated to hourly moving averages. Each animal received a vehicle on Day 1 followed by vehicle or test agent on Day 2. Change from vehicle baseline was calculated by subtracting the hourly Day 1 vehicle response from the hourly Day 2 response and treatment group data was expressed as mean±SEM. Decreases of systolic blood pressure (SBP) and systolic pulmonary arterial pressure (PAP) were measured at a particular IT dose (mpk milligrams per kilogram) for the following Example compounds.

One may read the Ki as a measure of affinity in units of concentration, obtained from inhibition or displacement. On to `CC1(c2nc(CCC(F)(F)C(=O)O)co2)C(=O)Nc2nc(-c3nn(Cc4ccccc4F)c4cc(Cl)ccc34)nc(N)c21` (stereo not shown) [Example 127A, 4-(2-{4-amino-2-[6-chloro-1-(2-fluorobenzyl)-1H-indazol-3-yl]-5-methyl-6-oxo-6,7-dihydro-5H-pyrrolo[2,3-d]pyrimidin-5-yl}-1,3-oxazol-4-yl)-2,2-difluorobutanoic acid], for which, on sGC α1/β1 heterodimer, the Emax was 117% and the EC50 came to 52 nM. The Ki in assay [1] stood at 0.057 nM. The “Category: decrease in SBP (at minimum decrease in PAP of ≥15 mmHg)” value (shortened to “Category: decrease in SBP”) in assay [2] (Dose IT 0.03 mpk) is recorded as “A (decrease in SBP 0-5 mmHg)”.

As to `C[C@@]1(c2ccc(CCC(=O)O)cc2)C(=O)Nc2nc(-c3nn(CC4CCCC4)c4cc(Cl)ccc34)nc(N)c21` [Example 160B, (S)-3-(4-{4-amino-2-[6-chloro-1-(cyclopentylmethyl)-1H-indazol-3-yl]-5-methyl-6-oxo-6,7-dihydro-5H-pyrrolo[2,3-d]pyrimidin-5-yl}phenyl)propanoic acid], at sGC α1/β1 heterodimer, the Emax stood at 108% and the EC50 came out at 111 nM. Further, the inhibition constant (Ki) in assay [1] turned out to be 0.062 nM. Moreover, the “Category: decrease in SBP” value in assay [2] (Dose IT 0.01 mpk) was “B (decrease in SBP 5-10 mmHg)”.

`CC1(c2nc(CCC(=O)O)c[nH]2)C(=O)Nc2nc(-c3nn(Cc4ccccc4F)c4cc(Cl)ccc34)nc(N)c21` (stereo not shown) [Example 235B, 3-(2-{4-Amino-2-[6-chloro-1-(2-fluorobenzyl)-1H-indazol-3-yl]-5-methyl-6-oxo-6,7-dihydro-5H-pyrrolo[2,3-d]pyrimidin-5-yl}-1H-imidazol-4-yl)propanoic acid]: on sGC α1/β1 heterodimer, the Emax was determined as 86.8% and the EC50 was 626 nM. The Ki in assay [1] worked out at 0.404 nM. Further, the “Category: decrease in SBP” value in assay [2] (Dose IT 0.01 mpk) was “A (decrease in SBP 0-5 mmHg)”.

`CC1(c2ccc(CCC(=O)O)cn2)C(=O)Nc2nc(-c3nn(CCC(F)(F)C(F)(F)F)c4cc(Cl)ccc34)nc(N)c21` (stereo not shown) [Example 119B, 3-(6-{4-Amino-2-[6-chloro-1-(3,3,4,4,4-pentafluorobutyl)-1H-indazol-3-yl]-5-methyl-6-oxo-6,7-dihydro-5H-pyrrolo[2,3-d]pyrimidin-5-yl}pyridin-3-yl)propanoic acid]: on sGC α1/β1 heterodimer, the Emax was determined as 103% and the EC50 turned out to be 839 nM. Besides, in assay [1], the Ki was found to be 0.292 nM. Besides, the “Category: decrease in SBP” value in assay [2] (Dose IT 0.03 mpk) is given as “A (decrease in SBP 0-5 mmHg)”.

In the case of `CC(C)(Cc1csc([C@]2(C)C(=O)Nc3nc(-c4nn(Cc5ccccc5F)c5cc(Cl)ccc45)nc(N)c32)n1)C(=O)O` [Example 95B, (S)-3-(2-{4-amino-2-[6-chloro-1-(2-fluorobenzyl)-1H-indazol-3-yl]-5-methyl-6-oxo-6,7-dihydro-5H-pyrrolo[2,3-d]pyrimidin-5-yl}-1,3-thiazol-4-yl)-2,2-dimethylpropanoic acid], on sGC α1/β1 heterodimer, the Emax is 118% and the EC50 was determined as 157 nM. Also, in assay [1], the Ki amounted to 0.06 nM. For the same compound, in assay [2] (Dose IT 0.03 mpk), the “Category: decrease in SBP” value is on record as “A (decrease in SBP 0-5 mmHg)”.

Consider `CC(C)(Cc1coc(C2(C)C(=O)Nc3nc(-c4nn(Cc5ccccc5F)c5cc(Cl)ccc45)nc(N)c32)n1)C(=O)O` (stereo not shown) [Example 3A, 3-(2-{4-amino-2-[6-chloro-1-(2-fluorobenzyl)-1H-indazol-3-yl]-5-methyl-6-oxo-6,7-dihydro-5H-pyrrolo[2,3-d]pyrimidin-5-yl)oxazol-4-yl}-2,2-dimethyl-propanoic acid], for which, at sGC α1/β1 heterodimer, the Emax stood at 126% and the EC50 stood at 183 nM. Also, the Ki in assay [1] stood at 0.067 nM. The “Category: decrease in SBP” value in assay [2] (Dose IT 0.01 mpk) is listed as “A (decrease in SBP 0-5 mmHg)”.

As for `C[C@@]1(c2nc(C3CC3C(=O)O)cs2)C(=O)Nc2nc(-c3nn(CCC(F)(F)C(F)(F)F)c4ncccc34)nc(N)c21` (stereo partly drawn) [Example 80BA, (5S)-2-(2-{-4-amino-5-methyl-6-oxo-2-[1-(3,3,4,4,4-pentafluorobutyl)-1H-pyrazolo[3,4-b]pyridin-3-yl]-6,7-dihydro-5H-pyrrolo[2,3-d]pyrimidin-5-yl}-1,3-thiazol-4-yl)cyclopropane-carboxylic acid], the “Category: decrease in SBP” value in assay [2] (Dose IT 0.1 mpk) is on record as “B (decrease in SBP 5-10 mmHg)”.

For the compound `CC(C)(Cc1csc([C@]2(C)C(=O)Nc3nc(-c4nn(Cc5cccc(F)c5)c5ccccc45)nc(N)c32)n1)C(=O)O` [Example 222A, (S)-3-(2-{4-amino-2-[1-(3-fluoro-benzyl)-1H-indazol-3-yl]-5-methyl-6-oxo-6,7-dihydro-5H-pyrrolo[2,3-d]pyrimidin-5-yl}-1,3-thiazol-4-yl)-2,2-dimethyl-propanoic acid], at sGC α1/β1 heterodimer, the Emax was determined as 105% and the EC50 was determined as 71 nM. In addition, the inhibitory constant (Ki) in assay [1] turned out to be 0.112 nM. In assay [2] (Dose IT 0.01 mpk), the “Category: decrease in SBP” value is reported as “B (decrease in SBP 5-10 mmHg)”.

On to `CC1(c2nc(CC(=O)O)co2)C(=O)Nc2nc(-c3nn(Cc4ccccc4F)c4cc(Cl)ccc34)nc(N)c21` (stereo not shown) [Example 51B, 2-(2-{4-amino-2-(6-chloro-1-(2-fluorobenzyl)-1H-indazol-3-yl)-5-methyl-6-oxo-6,7-dihydro-5H-pyrrolo[2,3-d]pyrimidin-5-yl}oxazol-4-yl)acetic acid], for which, at sGC α1/β1 heterodimer, the Emax is 116% and the EC50 is 485 nM. In addition, the “Category: decrease in SBP” value in assay [2] (Dose IT 0.01 mpk) is listed as “A (decrease in SBP 0-5 mmHg)”.

Consider `CC(C)(Cc1coc(C2(C)C(=O)Nc3nc(-c4nn(Cc5cccc(F)c5)c5cc(F)ccc45)nc(N)c32)n1)C(=O)O` (stereo not shown) [Example 195A, 3-(2-{4-amino-2-[6-fluoro-1-(3-fluorobenzyl)-1H-indazol-3-yl]-5-methyl-6-oxo-6,7-dihydro-5H-pyrrolo[2,3-d]pyrimidin-5-yl}-1,3-oxazol-4-yl)-2,2-dimethyl-propanoic acid], for which, on sGC α1/β1 heterodimer, the Emax was 103% and the EC50 amounted to 194 nM. Moreover, the Ki in assay [1] stood at 0.092 nM. The “Category: decrease in SBP” value in assay [2] (Dose IT 0.01 mpk) is given as “B (decrease in SBP 5-10 mmHg)”.

As to `CC(C)(CCc1coc(C2(C)C(=O)Nc3nc(-c4nn(Cc5ccccc5F)c5ccccc45)nc(N)c32)n1)C(=O)O` (stereo not shown) [Example 220B, 4-(2-{4-amino-2-[1-(2-fluorobenzyl)-1H-indazol-3-yl]-5-methyl-6-oxo-6,7-dihydro-5H-pyrrolo[2,3-d]pyrimidin-5-yl}-1,3-oxazol-4-yl)-2,2-dimethyl-butanoic acid], at sGC α1/β1 heterodimer, the Emax came out at 113% and the EC50 came out at 82 nM. Moreover, the Ki in assay [1] was found to be 0.087 nM. In addition, the “Category: decrease in SBP” value in assay [2] (Dose IT 0.01 mpk) is “B (decrease in SBP 5-10 mmHg)”.

For `CC(C)(Cc1coc(C2(C)C(=O)Nc3nc(-c4nn(Cc5ccccc5F)c5cc(F)ccc45)nc(N)c32)n1)C(=O)O` (stereo not shown) [Example 63A, 3-(2-{4-amino-2-[6-fluoro-1-(2-fluorobenzyl)-1H-indazol-3-yl]-5-methyl-6-oxo-6,7-dihydro-5H-pyrrolo[2,3-d]pyrimidin-5-yl}oxazol-4-yl)-2,2-dimethylpropanoic acid], on sGC α1/β1 heterodimer, the Emax turned out to be 72% and the EC50 worked out at 104 nM. The “Category: decrease in SBP” value in assay [2] (Dose IT 0.01 mpk) is “A (decrease in SBP 0-5 mmHg)”.

As for `C[C@@]1(c2nc(CC3(C(=O)O)CC3)cs2)C(=O)Nc2nc(-c3nn(CCC(F)(F)C(F)(F)F)c4ncccc34)nc(N)c21` [Example 81B, (S)-1-[(2-{4-amino-5-methyl-6-oxo-2-[1-(3,3,4,4,4-pentafluorobutyl)-1H-pyrazolo[3,4-b]pyridin-3-yl]-6,7-dihydro-5H-pyrrolo[2,3-d]pyrimidin-5-yl}-1,3-thiazol-4-yl)methyl]cyclopropane carboxylic acid], on sGC α1/β1 heterodimer, the Emax stood at 110% and the EC50 amounted to 504 nM. In addition, the “Category: decrease in SBP” value in assay [2] (Dose IT 0.03 mpk) is given as “B (decrease in SBP 5-10 mmHg)”.
